Measured values published in patent US20070117743A1, “New antitumoral compounds” (priority 2003, published 2007).

How the values were obtained:
Format in all cases: cell-based, human
A-549 = assay: SRB colorimetric assay of cell growth and viability, A-549; settings: 48 hours exposure, SRB; for GI50: read-out: GI50 A-549; for CC50: read-out: LC50 A-549
SK-MEL-28 = assay: SRB colorimetric assay of cell growth and viability, SK-MEL-28; settings: 48 hours exposure, SRB; for CC50: read-out: LC50 MEL-28
HT-29 = assay: SRB colorimetric assay of cell growth and viability, HT-29; settings: 48 hours exposure, SRB; for GI50: read-out: GI50 HT-29; for CC50: read-out: LC50 HT-29
LoVo = assay: SRB colorimetric assay of cell growth and viability, LoVo; settings: 48 hours exposure, SRB; for CC50: read-out: LC50 LOVO
LoVo-Dox = assay: SRB colorimetric assay of cell growth and viability, LoVo-Dox; settings: 48 hours exposure, SRB; for CC50: read-out: LC50 LOVO-DOX
How it was run: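 Continuous 48-hour exposure of cells plated at 5×10^3 per well, with compounds diluted in DMSO:EtOH:PBS (0.5:0.5:99) over 10 to 10^−8 μg/mL. Staining with SRB and reading at 490 nm give GI, TGI and LC.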

DU-145 = assay: SRB colorimetric assay of cell growth and viability, DU-145; settings: 48 hours exposure, SRB
LNCaP = assay: SRB colorimetric assay of cell growth and viability, LNCaP; settings: 48 hours exposure, SRB; for GI50: read-out: GI50 LN-caP; for CC50: read-out: LC50 LN-caP
SK-BR-3 = assay: SRB colorimetric assay of cell growth and viability, SK-BR-3; settings: 48 hours exposure, SRB
IGROV-1 = assay: SRB colorimetric assay of cell growth and viability, IGROV-1; settings: 48 hours exposure, SRB
IGROV-ET = assay: SRB colorimetric assay of cell growth and viability, IGROV-ET; settings: 48 hours exposure, SRB; for CC50: read-out: LC50 IGROV-ET
HeLa = assay: SRB colorimetric assay of cell growth and viability, HeLa; settings: 48 hours exposure, SRB; for CC50: read-out: LC50 HELA
HeLa-APL = assay: SRB colorimetric assay of cell growth and viability, HeLa-APL; settings: 48 hours exposure, SRB; for CC50: read-out: LC50 HELA-APL
PANC-1 = assay: SRB colorimetric assay of cell growth and viability, PANC-1; settings: 48 hours exposure, SRB; for CC50: read-out: LC50 PANC-1

Row | Structure (SMILES) | TGI A-549 (A-549) | GI50 (A-549) | CC50 (A-549) | GI50 (SK-MEL-28) | TGI MEL-28 (SK-MEL-28) | CC50 (SK-MEL-28) | TGI HT-29 (HT-29) | GI50 (HT-29) | CC50 (HT-29) | GI50 (LoVo) | TGI LOVO (LoVo) | CC50 (LoVo) | GI50 (LoVo-Dox) | TGI LOVO-DOX (LoVo-Dox) | CC50 (LoVo-Dox) | GI50 (DU-145) | LC50 (concentration causing 50% net cell kill) (DU-145) | TGI DU-145 (DU-145) | TGI LN-caP (LNCaP) | GI50 (LNCaP) | further results
1 | C/C=C1\NC(=O)[C@H](Cc2ccc(Cl)c(Cl)c2)NC(=O)[C@@H](C(C)C)NC(=O)[C@@H]([C@@H](C)CC)NC(=O)[C@H](NC(=O)[C@H](NC(=O)[C@H](CCCN)NC(=O)[C@H]2CCCN2C(=O)[C@H](NC(=O)[C@@H](NC(=O)[C@@H](NC(=O)[C@H](NC(=O)CC[C@@H](C)CC)C(C)C)[C@@H](C)O)C(C)C)C(C)C)[C@@H](C)CC)[C@@H](C)OC(=O)[C@H](C(C)C)NC1=O [Compound 70, [Phe(3,4-Cl2)^3, (4S)-MeHex^14]-KF] | 3.32E−07 Molar | 183 nM | 604 nM | 120 nM | 2.39E−07 Molar | 475 nM | 2.13E−07 Molar | 111 nM | 412 nM | 68.5 nM | 4.11E−07 Molar | 1730 nM | 28.5 nM | 8.15E−08 Molar | 612 nM | 142 nM | 465 nM | 2.57E−07 Molar | 2.08E−07 Molar | 66.6 nM | CC50 (LNCaP): 6470 nM; GI50 (SK-BR-3): 52.8 nM; LC50 (SK-BR-3): 299 nM; TGI SK-BR-3 (SK-BR-3): 1.18E−08 Molar; GI50 (IGROV-1): 182 nM; LC50 (concentration causing 50% net cell killing) (IGROV-1): 487 nM; TGI IGROV (IGROV-1): 2.97E−07 Molar; GI50 (IGROV-ET): 112 nM; TGI IGROV-ET (IGROV-ET): 2.09E−07 Molar; CC50 (IGROV-ET): 387 nM; GI50 (HeLa): 125 nM; TGI HELA (HeLa): 2.22E−07 Molar; CC50 (HeLa): 397 nM; GI50 (HeLa-APL): 259 nM; TGI HELA-APL (HeLa-APL): 7.63E−07 Molar; CC50 (HeLa-APL): 2240 nM; GI50 (PANC-1): 1000 nM; TGI PANC-1 (PANC-1): 1.85E−06 Molar; CC50 (PANC-1): 3420 nM
2 | C/C=C1\NC(=O)[C@H](Cc2ccc(F)cc2)NC(=O)[C@@H](C(C)C)NC(=O)[C@@H]([C@@H](C)CC)NC(=O)[C@H](NC(=O)[C@H](NC(=O)[C@H](CCCN)NC(=O)[C@H]2CCCN2C(=O)[C@H](NC(=O)[C@@H](NC(=O)[C@@H](NC(=O)[C@H](NC(=O)CC[C@@H](C)CC)C(C)C)[C@@H](C)O)C(C)C)C(C)C)[C@@H](C)CC)[C@@H](C)OC(=O)[C@H](C(C)C)NC1=O [Compound 74, [Phe(4-F)^3, (4S)-MeHex^14]-KF] | 1.76E−06 Molar | 956 nM | 3230 nM | 829 nM | 1.64E−06 Molar | 3230 nM | 2.61E−07 Molar | 137 nM | 499 nM | 139 nM | 2.35E−07 Molar | 395 nM | 153 nM | 3.09E−07 Molar | 624 nM | 796 nM | 3250 nM | 1.61E−06 Molar | 1.02E−06 Molar | 402 nM | CC50 (LNCaP): 2590 nM; GI50 (SK-BR-3): 213 nM; LC50 (SK-BR-3): 495 nM; TGI SK-BR-3 (SK-BR-3): 3.24E−07 Molar; GI50 (IGROV-1): 206 nM; LC50 (concentration causing 50% net cell killing) (IGROV-1): 943 nM; TGI IGROV (IGROV-1): 3.88E−07 Molar; GI50 (IGROV-ET): 212 nM; TGI IGROV-ET (IGROV-ET): 3.18E−07 Molar; CC50 (IGROV-ET): 477 nM; GI50 (HeLa): 214 nM; TGI HELA (HeLa): 3.78E−07 Molar; GI50 (HeLa-APL): 675 nM; TGI HELA-APL (HeLa-APL): 1.46E−06 Molar; CC50 (HeLa-APL): 3150 nM; GI50 (PANC-1): 1080 nM; TGI PANC-1 (PANC-1): 1.98E−06 Molar; CC50 (PANC-1): 3600 nM
3 | C/C=C1\NC(=O)[C@H](Cc2ccc([N+](=O)[O-])cc2)NC(=O)[C@@H](C(C)C)NC(=O)[C@@H]([C@@H](C)CC)NC(=O)[C@H](NC(=O)[C@H](NC(=O)[C@H](CCCN)NC(=O)[C@H]2CCCN2C(=O)[C@H](NC(=O)[C@@H](NC(=O)[C@@H](NC(=O)[C@H](NC(=O)CC[C@@H](C)CC)C(C)C)[C@@H](C)O)C(C)C)C(C)C)[C@@H](C)CC)[C@@H](C)OC(=O)[C@H](C(C)C)NC1=O [Compound 73, [Phe(4-NO2)^3, (4S)-MeHex^14]-KF] | 1.24E−06 Molar | 532 nM | 2760 nM | 223 nM | 4.71E−07 Molar | 1480 nM | 2.32E−07 Molar | 127 nM | 426 nM | 112 nM | 2.04E−07 Molar | 372 nM | 33.5 nM | 9.46E−08 Molar | 255 nM | 233 nM | 2040 nM | 6.57E−07 Molar | 8.41E−07 Molar | 377 nM | CC50 (LNCaP): 2320 nM; GI50 (SK-BR-3): 150 nM; LC50 (SK-BR-3): 574 nM; TGI SK-BR-3 (SK-BR-3): 2.94E−07 Molar; GI50 (IGROV-1): 173 nM; LC50 (concentration causing 50% net cell killing) (IGROV-1): 488 nM; TGI IGROV (IGROV-1): 2.90E−07 Molar; GI50 (IGROV-ET): 229 nM; TGI IGROV-ET (IGROV-ET): 3.26E−07 Molar; CC50 (IGROV-ET): 467 nM; GI50 (HeLa): 173 nM; TGI HELA (HeLa): 2.80E−07 Molar; CC50 (HeLa): 450 nM; GI50 (HeLa-APL): 521 nM; TGI HELA-APL (HeLa-APL): 1.30E−06 Molar; CC50 (HeLa-APL): 2950 nM; GI50 (PANC-1): 952 nM; TGI PANC-1 (PANC-1): 1.85E−06 Molar; CC50 (PANC-1): 3580 nM
